Experimental data from patent US8404619B2, “Particulate plant treatment composition” (Maruo Calcium Company Limited, priority 2005, dated 2013).

Key:
Format in all cases: in vivo
[1] = test system: cherry fruit tree (Satonishiki); assay: reducing fruit-cracking and improving fruit quality, spray on cherry fruit tree
Experimental: The effects of a quality improver in reducing fruit-cracking and improving fruit quality were evaluated using a cherry fruit tree (Satonishiki). That is, the quality improver of Example 1 was sprayed on the cherry fruit tree at the polyvalent metal concentrations shown in Table 10 over three times from early May (two-week interval). Each treatment was conducted on each branch by spraying with a backpack sprayer.
The evaluation was carried out on 50 randomly selected fruits. The incidence of fruit-cracking was expressed as a ratio of the number of fruits with cracking to the total number of fruits examined. The degree of fruit coloring was expressed as the colored area of a fruit. The sugar content was determined using a sugar refractometer. The acidity was expressed as titratable malic acid content. The dirt on a fruit surface was evaluated by a ratio of the surface area soiled whitish to the total surface area of the fruit on a scale of 1 to 5 (not soiled=1, slightly soiled=2, a little soiled=3, moderately soiled=4, much soiled=5). The phytotoxicity was evaluated on a scale of 1 to 5 (normal=1, slightly damaged=2, a little damaged=3, moderately damaged=4, much damaged=5).
The examinations were carried out in the same manner as in Application Example 64 except that the quality improvers of Examples 2 to 4, 6 to 7, 12, 14, 17 to 18, and Comparative Examples 1 to 4 were used instead of the quality improver of Example 1.

[2] = test system: mandarin orange tree (Satsuma mandarin); assay: preventing peel puffing and improving fruit quality, leaf spray on mandarin orange tree; conditions: for Fruit skin color: color chart 0 (poorly colored) to 12 (fully colored); for Degree of peel puffing: peel puffing index, 20 fruits, sprayed three times; for Phytotoxicity: scale of 1 to 5; for Sugar content: sugar refractometer; for Acidity: titratable citric acid content
Experimental: The effects of a quality improver in preventing peel puffing and improving fruit quality were evaluated using a mandarin orange tree (Satsuma mandarin). That is, the quality improver of Example 1 was sprayed on the mandarin orange tree at the polyvalent metal concentrations shown in Table 2 over three times from early September (one-month interval). Each treatment was conducted on each branch by spraying with a backpack sprayer.
The evaluation was carried out on 20 randomly selected fruits. The degree of peel puffing was evaluated by examining cross sections of the fruits based on a 4-point scale (none=0, mild=1, moderate=2, severe=3), and expressed by the following equation: peel puffing index={(1×the number of fruits with mild peel puffing)+(2×the number of fruits with moderate peel puffing)+(3×the number of fruits with severe peel puffing)}×100/(3×the number of fruits examined). The fruit skin color was determined using a color chart based on a scale of 0 (poorly colored) to 12 (fully colored). The sugar content was determined using a sugar refractometer. The acidity was expressed as titratable citric acid content. The dirt on a fruit surface was evaluated by a ratio of the surface area soiled whitish to the total surface area of the fruit on a scale of 1 to 5 (not soiled=1, slightly soiled=2, a little soiled=3, moderately soiled=4, much soiled=5). The phytotoxicity was evaluated on a scale of 1 to 5 (normal=1, slightly damaged=2, a little damaged=3, moderately damaged=4, much damaged=5).
The examinations were carried out in the same manner as in Application Example 1 except that the quality improvers of Examples 2 to 21 and Comparative Examples 1 to 4 were used instead of the quality improver of Example 1.

[3] = test system: apple tree (Orin); assay: reducing bitter pit and improving fruit quality, spray on apple tree; conditions: for Incidence of bitter pit: 50 fruits, sprayed four times; for Ground color: fruit skin, 5-point scale (best=5, worst=1); for Phytotoxicity: scale of 1 to 5; for Sugar content: sugar refractometer; for Acidity: titratable malic acid content
Experimental: The effects of a quality improver in reducing bitter pit and improving fruit quality were evaluated using an apple tree (Orin). That is, the quality improver of Example 1 was sprayed on the apple tree at the polyvalent metal concentrations shown in Table 4 over four times from early June (two-week interval). Each treatment was conducted on each branch by spraying with a backpack sprayer.
The evaluation was carried out on 50 randomly selected fruits. The incidence of bitter pit was expressed as a ratio of the number of fruits with bitter pit to the total number of fruits examined. The ground color of fruit skin was determined on a 5-point scale (best=5, worst=1). The sugar content was determined using a sugar refractometer. The acidity was expressed as titratable malic acid content. The phytotoxicity was evaluated on a scale of 1 to 5 (normal=1, slightly damaged=2, a little damaged=3, moderately damaged=4, much damaged=5).
The examinations were carried out in the same manner as in Application Example 22 except that the quality improvers of Examples 2 to 21 and Comparative Examples 1 to 4 were used instead of the quality improver of Example 1.

| SMILES | Acidity ([1]; polyvalent metal 0.030 wt. %) | Degree of fruit coloring ([1]; polyvalent metal 0.030 wt. %) | Incidence of fruit-cracking ([1]; polyvalent metal 0.030 wt. %) | Phytotoxicity ([1]; polyvalent metal 0.030 wt. %) | Sugar content ([1]; polyvalent metal 0.030 wt. %) | Acidity ([1]; polyvalent metal 0.075 wt. %) | Degree of fruit coloring ([1]; polyvalent metal 0.075 wt. %) | Incidence of fruit-cracking ([1]; polyvalent metal 0.075 wt. %) | Phytotoxicity ([1]; polyvalent metal 0.075 wt. %) | Sugar content ([1]; polyvalent metal 0.075 wt. %) | Fruit skin color ([2]; polyvalent metal 0.030 wt. %) | Fruit skin color ([2]; polyvalent metal 0.075 wt. %) | Degree of peel puffing ([2]; polyvalent metal 0.030 wt. %) | Degree of peel puffing ([2]; polyvalent metal 0.075 wt. %) | Phytotoxicity ([2]; polyvalent metal 0.030 wt. %) | Phytotoxicity ([2]; polyvalent metal 0.075 wt. %) | Sugar content ([2]; polyvalent metal 0.030 wt. %) | Sugar content ([2]; polyvalent metal 0.075 wt. %) | Acidity ([2]; polyvalent metal 0.030 wt. %) | Acidity ([2]; polyvalent metal 0.075 wt. %) | also measured |
| --- | --- | --- | --- | --- | --- | --- | --- | --- | --- | --- | --- | --- | --- | --- | --- | --- | --- | --- | --- | --- | --- |
| [Ca+2].[Cl-].[Cl-] [calcium chloride] | 0.64 | 79.2 | 18.2% | 4 | 19.4 | 0.66 | 78.4 | 18.5% | 4 | 19.2 | 9.5 | 9.9 | 47.0 | 42.0 | 4 | 4 | 10.0 | 10.1 | 1.00 | 0.99 | Incidence of bitter pit ([3]; polyvalent metal 0.030 wt. %): 30.0%; Incidence of bitter pit ([3]; polyvalent metal 0.075 wt. %): 25.0%; Ground color ([3]; polyvalent metal 0.030 wt. %): 3.7; Ground color ([3]; polyvalent metal 0.075 wt. %): 3.9; Phytotoxicity ([3]; polyvalent metal 0.030 wt. %): 4; Phytotoxicity ([3]; polyvalent metal 0.075 wt. %): 4; Sugar content ([3]; polyvalent metal 0.030 wt. %): 14.1; Sugar content ([3]; polyvalent metal 0.075 wt. %): 14.2; Acidity ([3]; polyvalent metal 0.030 wt. %): 0.37; Acidity ([3]; polyvalent metal 0.075 wt. %): 0.35 |
| O=C[O-].O=C[O-].[Ca+2] [calcium formate] | 0.63 | 80.5 | 16.1% | 3 | 19.9 | 0.62 | 80.3 | 15.6% | 3 | 20.2 | 10.0 | 10.4 | 47.5 | 42.5 | 3 | 3 | 10.5 | 11.1 | 0.93 | 0.95 | Incidence of bitter pit ([3]; polyvalent metal 0.030 wt. %): 26.0%; Incidence of bitter pit ([3]; polyvalent metal 0.075 wt. %): 24.0%; Ground color ([3]; polyvalent metal 0.030 wt. %): 3.8; Ground color ([3]; polyvalent metal 0.075 wt. %): 3.8; Phytotoxicity ([3]; polyvalent metal 0.030 wt. %): 3; Phytotoxicity ([3]; polyvalent metal 0.075 wt. %): 3; Sugar content ([3]; polyvalent metal 0.030 wt. %): 14.5; Sugar content ([3]; polyvalent metal 0.075 wt. %): 14.9; Acidity ([3]; polyvalent metal 0.030 wt. %): 0.38; Acidity ([3]; polyvalent metal 0.075 wt. %): 0.30 |
